From US20260041744A1, “Methods for Treating Pompe Disease” (Amicus Therapeutics, Inc., priority 2022, published 2026)
Entries after “also recorded” stand apart in the source; their conditions may differ.

Tests used:
CIMPR [1] = biological target: T1, CIMPR (Homo sapiens, UniProt P11717); assay: CIMPR Overlay Assay (far-western blot); type: binding
Method: The CIMPR Overlay Assay is a variation on a far-western blot where proteins are separated on an SDS-PAGE, transferred to a nitrocellulose membrane, and incubated with purified CIMPR in the place of a primary antibody as in a conventional western blot. Binding of CIMPR to M6P-containing glycans on rhGAA proteins is then visualized by an anti-CIMPR antibody.

[2] = tested on: Pompe patient fibroblasts; assay: Cellular uptake into Pompe patient fibroblasts (20 nM rhGAA, 18-hr); type: cell-based, human
Method: The relative cellular uptake into Pompe patient fibroblasts of dephosphorylated cipaglucosidase alfa compared to mock-treated cipaglucosidase alfa and mock-treated alglucosidase alfa was assessed. Comparisons at a concentration of 20 nM of rhGAA was used to mimic the interstitial concentration of cipaglucosidase alfa that crosses into tissues, as shown in FIG. 77A. After an 18-hr incubation for enzyme uptake, cells were washed for 2 hours, harvested, lysed, and then processed for GAA activity and western blot analysis. Internalized GAA measured by 4MU-a-Glucoside hydrolysis and was graphed relative to total cellular protein and the results appear in FIG. 77B.
However, cell uptake of PAP-treated cipaglucosidase alfa is abolished.

adult subjects with LOPD [3] = assay: Study ATB200-07 (OLE): sitting % predicted FVC; type: in vivo, human; details: Study ATB200-03/07, excluding the outlier
Description: (§1) The study doses and schedule are maintained from Study ATB200-03.
(§2) Efficacy data are presented in this summary as change from the baseline of Study ATB200-03 (OLE-ES Population).

Gaa KO mice [4] = assay: Single fiber analysis (LAMP1/LC3 co-immunofluorescence, white gastrocnemius); type: in vivo, mouse; details: single fibers
Description: FIG. 17 depicts co-immunofluorescent staining of LAMP1 (green) (see for example, “B”) and LC3 (red) (see, for example, “A”) in single fibers isolated from the white gastrocnemius of Gaa KO mice treated with a vehicle, alglucosidase alfa, or ATB200. “C” depicts clearance of autophagic debris and absence of enlarged lysosome. A minimum of 30 fibers were examined from each animal.
As a result, a significant portion of muscle fibers analyzed (36-60%) from ATB200-treated mice appeared normal or near-normal.

[5] = tested on: adults with Pompe disease; assay: Study ATB200-02 (20 mg/kg cipaglucosidase alfa IV + 260 mg miglustat): 6MWT (6MWD, % predicted 6MWD); type: in vivo, human;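 note: Open-label Phase I/II trial, ambulatory cohorts only, values are changes from baseline or counts relative to the baseline walk test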
Method: The change from baseline (CFBL) in 6MWD, % predicted sitting FVC, manual muscle test (MMT) and biomarkers—urine glucose tetrasaccharide (Hex4) and serum creatine kinase (CK)—were assessed at regular intervals.
The 4 cohorts in the study are as follows: • Cohort 1: ERT-experienced (2 to 6 years) ambulatory subjects (11 subjects) • Cohort 2: ERT-experienced (≥2 years) non-ambulatory subjects (6 subjects) • Cohort 3: ERT-naïve ambulatory subjects (6 subjects)· • Cohort 4: ERT-experienced (≥7 years) ambulatory subjects (6 subjects)
In Study ATB200-02, motor function was evaluated in all ambulatory subjects (ie, Cohorts 1, 3, and 4) (Table 23, FIGS. 46A-46D).

animals = details: in vivo
Description: It is not known whether miglustat is secreted in breast milk. A risk to newborns/breastfed infants cannot be ruled out. The developmental and health benefits of breastfeeding should be considered, as well as the clinical need for the mother to receive co-administration therapy with cipaglucosidase alfa and miglustat, and any adverse reactions experienced by the breastfed child potentially related to the co-administration of cipaglucosidase alfa and miglustat or the underlying maternal condition. In some embodiments, breastfeeding is not allowed while taking cipaglucosidase alfa and miglustat. There are no clinical data on the effects of co-administration therapy of cipaglucosidase alfa and miglustat on fertility.

[6] = human, in vivo
Description: Blood sampling for plasma GAA protein and miglustat concentrations were taken for cohort 1 (ERT-experienced) and cohort 3 (ERT-naïve) only. To prevent any undue burden on patients, blood sampling for PK was not performed for non-ambulatory patients (cohort 2) and, due to similarity to cohort 1, those in cohort 4.

[7] = Cipaglucosidase alfa pharmacokinetics in ERT-experienced adult patients with LOPD; type: in vivo, human
adult subjects with LOPD [8] = assay: Study ATB200-07 (OLE of PROPEL): 6MWD and % predicted 6MWD; type: in vivo, human; details: Study ATB200-03/07, excluding the outlier
Description: as §1, §2

CIMPR [9] = biological target: T1, CIMPR; assay: CIMPR plate binding assay
Method: In addition to having a greater percentage of rhGAA that can bind to the CIMPR, it is important to understand the quality of that interaction. LUMIZYME® and ATB200 receptor binding was determined using a CIMPR plate binding assay. Briefly, CIMPR-coated plates were used to capture GAA. Varying concentrations of rhGAA were applied to the immobilized receptor and unbound rhGAA was washed off. The amount of remaining rhGAA was determined by GAA activity.
N-glycan analysis via MALDI-TOF mass spectrometry confirmed that on average each ATB200 molecule contains at least one natural bis-M6P N-glycan structure.

[10] = tested on: 4MU-a-Glucoside hydrolysis (GAA activity); assay: GAA enzyme activity by 4MU-a-Glucoside hydrolysis after PAP treatment; type: biochemical, human; details: PAP 18 hours
Method: Removal of phosphoesters mono- and bis-M6P was completed by the enzyme purple acid phosphatase (PAP). PAP hydrolyzes phosphate esters and anhydrides. […] Cipaglucosidase alfa was treated with PAP for 18 hours, and alglucosidase alfa in the same reaction conditions but without PAP addition was used as a mock-treated control. PAP treatment results in complete removal of the bis-M6P peak and nearly all of the mono-M6P peak from the cipaglucosidase alfa LC-FLD chromatogram. Additional peaks are clearly observed in the neutral high mannose glycan region resulting from the removal of phosphates from mono- and bis-phosphorylated high mannose glycans.

ATB200 = ATB200 (Homo sapiens, UniProt P10253); assay: Thermostability assay using SYPRO Orange
[11] = tested on: normal and Pompe fibroblast cell lines; assay: Cellular uptake of rhGAA into fibroblasts (16-hr incubation, internalized GAA by 4MU-α-Glucoside hydrolysis); type: cell-based, human
Method: The relative cellular uptake of ATB200 and LUMIZYME® rhGAA were compared using normal and Pompe fibroblast cell lines. Comparisons involved 5-100 nM of ATB200 according to the disclosure with 10-500 nM conventional rhGAA product LUMIZYME®. After 16-hr incubation, external rhGAA was inactivated with TRIS base and cells were washed 3-times with PBS prior to harvest. Internalized GAA measured by 4MU-α-Glucoside hydrolysis and was graphed relative to total cellular protein and the results appear in FIGS. 11A-11C.
ATB200 was also shown to be efficiently internalized into cells. […] ATB200 saturates cellular receptors at about 20 nM, while about 250 nM of LUMIZYME® is needed to saturate cellular receptors.

[12] = tested on: adults with Pompe disease; assay: Study ATB200-02: sitting % predicted FVC
Method: Four cohorts of patients with Pompe disease were enrolled in the ATB200-02 study: • Cohort 1: ERT-experienced, aged 18-65 years, with 2-6 years prior ERT with 20 mg/kg alglucosidase alfa every 2 weeks (n=11) • Cohort 2: Non-ambulatory ERT-experienced, aged 18-65 years, with ≥2 years prior ERT with 20 mg/kg alglucosidase alfa every 2 weeks (n=6)· • Cohort 3: ERT-naïve, aged 18-65 years (n=6). • Cohort 4: ERT-experienced, aged 18-75 years, with ≥7 years prior ERT with 20 mg/kg alglucosidase alfa every 2 weeks (n=6)
The change from baseline (CFBL) in 6MWD, % predicted sitting FVC, manual muscle test (MMT) and biomarkers—urine glucose tetrasaccharide (Hex4) and serum creatine kinase (CK)—were assessed at regular intervals. Data with up to 36 months of follow-up in ERT-experienced and ERT-naïve patients is provided herein. […] Due to the staggered timing of patient enrollment, the number of patients with data currently available decreases at later time-points in this ongoing study.

Gaa KO mice [13] = assay: Muscle fiber size (minimum Feret's diameter) in quadriceps, 12 biweekly injections; type: in vivo, mouse; details: 20 mg/kg, 12 biweekly bolus injections
Method: FIG. 78 is a graph showing the effect of long-term cipaglucosidase alfa administration (20 mg/kg, 12 biweekly bolus injections) versus alglucosidase alfa on muscle fiber size by mean minimum fiber diameter (FD) in Gaa KO mouse quadriceps.
Gaa mice, like patients with Pompe disease, show a decrease in muscle fiber size as a consequence of muscle atrophy.

[14] = ERT-experienced, Study ATB200-02, Cohort 1 and 4 combined
[15] = ERT-naïve, Study ATB200-02, Cohort 3
[16] = 20 mg/kg in combination with Miglustat 260 mg
[17] = ERT-experienced, Study ATB200-02

T1 sequence (P11717 41-2491, species assumed): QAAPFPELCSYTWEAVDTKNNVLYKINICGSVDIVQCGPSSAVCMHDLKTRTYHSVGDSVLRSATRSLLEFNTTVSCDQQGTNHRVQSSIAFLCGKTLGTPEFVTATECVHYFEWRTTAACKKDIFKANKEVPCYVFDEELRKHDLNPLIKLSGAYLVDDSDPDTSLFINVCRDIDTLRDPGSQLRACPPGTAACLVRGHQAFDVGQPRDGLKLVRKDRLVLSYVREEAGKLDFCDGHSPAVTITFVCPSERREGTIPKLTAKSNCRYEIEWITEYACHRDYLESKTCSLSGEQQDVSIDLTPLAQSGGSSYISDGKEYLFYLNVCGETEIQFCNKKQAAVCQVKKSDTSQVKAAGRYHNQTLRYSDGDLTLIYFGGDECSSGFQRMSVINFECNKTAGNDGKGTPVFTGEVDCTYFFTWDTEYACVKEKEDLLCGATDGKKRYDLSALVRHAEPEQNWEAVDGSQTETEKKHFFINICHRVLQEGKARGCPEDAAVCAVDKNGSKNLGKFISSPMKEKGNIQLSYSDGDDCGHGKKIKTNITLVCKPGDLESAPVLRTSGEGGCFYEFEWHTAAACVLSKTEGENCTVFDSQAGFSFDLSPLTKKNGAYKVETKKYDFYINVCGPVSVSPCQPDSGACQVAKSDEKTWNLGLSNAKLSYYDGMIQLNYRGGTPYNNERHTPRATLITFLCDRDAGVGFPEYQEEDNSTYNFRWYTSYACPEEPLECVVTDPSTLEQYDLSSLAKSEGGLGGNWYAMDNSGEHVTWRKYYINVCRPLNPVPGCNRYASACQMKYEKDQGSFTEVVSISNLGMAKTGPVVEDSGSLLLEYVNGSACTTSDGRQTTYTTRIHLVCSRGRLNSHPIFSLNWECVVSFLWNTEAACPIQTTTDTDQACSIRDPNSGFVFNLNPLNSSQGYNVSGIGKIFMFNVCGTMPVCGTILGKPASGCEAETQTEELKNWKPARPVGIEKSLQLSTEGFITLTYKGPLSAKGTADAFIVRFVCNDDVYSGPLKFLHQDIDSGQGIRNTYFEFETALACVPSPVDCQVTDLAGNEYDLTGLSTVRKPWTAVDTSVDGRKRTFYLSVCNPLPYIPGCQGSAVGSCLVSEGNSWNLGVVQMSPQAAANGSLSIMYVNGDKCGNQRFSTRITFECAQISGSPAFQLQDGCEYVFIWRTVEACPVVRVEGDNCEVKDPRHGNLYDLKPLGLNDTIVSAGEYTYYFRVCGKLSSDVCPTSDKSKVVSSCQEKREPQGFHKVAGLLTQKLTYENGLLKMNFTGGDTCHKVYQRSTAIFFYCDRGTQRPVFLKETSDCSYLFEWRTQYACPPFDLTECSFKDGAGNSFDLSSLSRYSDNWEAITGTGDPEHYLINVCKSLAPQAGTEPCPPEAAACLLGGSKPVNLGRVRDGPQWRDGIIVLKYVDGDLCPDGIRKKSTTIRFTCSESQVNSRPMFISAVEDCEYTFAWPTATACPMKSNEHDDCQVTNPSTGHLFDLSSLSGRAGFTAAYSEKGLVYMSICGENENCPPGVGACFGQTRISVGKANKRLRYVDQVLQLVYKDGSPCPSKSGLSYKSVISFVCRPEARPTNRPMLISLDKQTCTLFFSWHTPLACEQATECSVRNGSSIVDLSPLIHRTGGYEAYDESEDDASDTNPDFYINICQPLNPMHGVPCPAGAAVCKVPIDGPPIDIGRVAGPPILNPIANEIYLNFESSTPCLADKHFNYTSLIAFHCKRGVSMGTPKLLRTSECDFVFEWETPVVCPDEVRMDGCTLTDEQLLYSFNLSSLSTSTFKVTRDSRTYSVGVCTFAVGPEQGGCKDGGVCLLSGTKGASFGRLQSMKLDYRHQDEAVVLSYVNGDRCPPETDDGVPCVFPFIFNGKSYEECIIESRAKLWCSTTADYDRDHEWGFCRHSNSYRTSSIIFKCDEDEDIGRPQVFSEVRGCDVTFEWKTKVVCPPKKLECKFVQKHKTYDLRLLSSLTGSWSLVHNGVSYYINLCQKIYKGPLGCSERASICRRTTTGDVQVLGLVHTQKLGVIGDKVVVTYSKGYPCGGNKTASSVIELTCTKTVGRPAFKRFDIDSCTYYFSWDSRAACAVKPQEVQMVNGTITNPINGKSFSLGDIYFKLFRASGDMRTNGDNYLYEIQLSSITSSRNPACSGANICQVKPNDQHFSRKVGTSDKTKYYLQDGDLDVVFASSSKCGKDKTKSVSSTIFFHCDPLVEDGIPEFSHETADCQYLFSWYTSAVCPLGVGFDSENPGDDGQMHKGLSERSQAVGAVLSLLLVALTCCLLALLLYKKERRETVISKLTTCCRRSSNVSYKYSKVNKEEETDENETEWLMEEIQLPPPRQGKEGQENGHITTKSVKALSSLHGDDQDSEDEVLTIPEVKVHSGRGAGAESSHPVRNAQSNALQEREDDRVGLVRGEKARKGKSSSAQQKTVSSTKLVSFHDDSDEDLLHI

## ATB200: recombinant human acid α-glucosidase with a high content of N-glycans bearing mono-M6P and bis-M6P, produced from GA-ATB200 CHO cell line
CIMPR [1]
  CIMPR binding in overlay assay: binds with high affinity to CIMPR as shown by an intense band
[2]
  cellular uptake into Pompe fibroblasts: better cellular uptake compared to alfaglucosidase alfa
Adult subjects with LOPD [3]; ERT-experienced
  % Predicted FVC Baseline Mean: 67.7 % predicted
  % Predicted FVC CFBL M12 (W 52) Mean: 0.1 % predicted
  % Predicted FVC CFBL M24 (W 104) Mean: −0.6 % predicted
Adult subjects with LOPD [3]; ERT-naïve
  % Predicted FVC Baseline Mean: 80.2 % predicted
  % Predicted FVC CFBL M12 (W 52) Mean: −4.7 % predicted
  % Predicted FVC CFBL M24 (W 104) Mean: −4.8 % predicted
Gaa KO mice [4]
  Fibers with Normal or Near-normal Appearance: 36-60%
  Lysosome Enlargement: dramatically decreased lysosome size; also recorded: Dramatic size
[5]; [14]
  6MWD Baseline, Mean: 393.5
  6MWD CFBL M12 (W 52) Mean: 33.5
  6MWD CFBL M24 (W 104) Mean: 25.2
[5]; [15]
  6MWD Baseline, Mean: 396.0
  6MWD CFBL M12 (W 52) Mean: 57.0
  6MWD CFBL M24 (W 104) Mean: 54.4
animals
  excretion in milk: excretion of cipaglucosidase alfa in milk
  fertility, preclinical data: did not reveal any significant adverse reactions
[6]
  median time of peak signature peptide T09 concentrations (tmax): approximately 4 hours
[7]; [16]
  AUC0-inf, mean: 1812 µg·h/mL
  Cmax, mean: 345 µg/mL
[7]; 20 mg/kg without Miglustat
  AUC0-inf, mean: 1410 µg·h/mL
  Cmax, mean: 325 µg/mL
Adult subjects with LOPD [8]; ERT-experienced
  6MWD Baseline, Mean: 342.4
  6MWD CFBL M12 (W 52) Mean: 16.3
  6MWD CFBL M24 (W 104) Mean: 14.2
Adult subjects with LOPD [8]; ERT-naïve
  6MWD Baseline, Mean: 393.6
  6MWD CFBL M12 (W 52) Mean: 33.4
  6MWD CFBL M24 (W 104) Mean: 38.8
CIMPR [9]; CIMPR-coated plates
  CIMPR binding compared with LUMIZYME: bound to CIMPR significantly better than LUMIZYME®
CIMPR [9]; M6P receptor plate binding assays
  Kd: 2 to 4 nM
[10]
  enzyme activity after PAP treatment: retaining the enzyme activity
ATB200; pH 5.2
  Tm: 67.3 °C
ATB200; pH 7.4
  Tm: 56.2 °C
ATB200; pH 7.4 + 10 μM miglustat
  Tm: 61.6 °C
ATB200; pH 7.4 + 30 μM miglustat
  Tm: 62.9 °C
ATB200; pH 7.4 + 100 μM miglustat
  Tm: 66.0 °C
[11]; extrapolated from uptake curves
  uptake efficiency constant (Kuptake): 2-3 nm
[11]; normal and Pompe fibroblast cells
  internalization into fibroblasts: internalized to a greater degree than the conventional rhGAA product LUMIZYME®
[11]; normal and Pompe fibroblasts
  rhGAA concentration that saturates cellular receptors: about 20 nM
[12]; [17]
  % Predicted FVC Baseline Mean: 57.4 % predicted
  % Predicted FVC CFBL M12 (W 52) Mean: −1.2 % predicted
  % Predicted FVC CFBL M24 (W 104) Mean: 1.0 % predicted
[12]; [15]
  % Predicted FVC Baseline Mean: 57.2 % predicted
  % Predicted FVC CFBL M12 (W 52) Mean: 3.2 % predicted
  % Predicted FVC CFBL M24 (W 104) Mean: 4.7 % predicted
Gaa KO mice [13]
  muscle fiber size vs alglucosidase alfa: significantly improved muscle fiber size
